The supplement of paper PMC10307832

Columns and labels:
Assay in all cases: relative viability (nuclei count vs DMSO), 5 days (fraction); higher = more cells survive
[1] = compound: CCC1=CN=CN=C1N2CCN(CC2)CC3=NC4=C(N3)C=C(C=C4)C(F)(F)F
Summary of the method: (§1)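 Vehicle-anchored 1536-well plates of lung cancer cell lines, held overnight at 37 °C, were pinned with five library-drug doses (not always all listed) spaced by √10. No medium change followed over the next 5 days, after which the cells were fixed, permeabilised and Hoechst-stained together and imaged at 4×. Nuclei were counted with MetaXpress, and viability is treated-well nuclei over vehicle-well nuclei, taken as a median across plates. Plates passed with control CV below 25% and at least one doubling.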

[2] = compound: CCn1c(-c2nonc2N)nc2cnc(Oc3cccc(NC(=O)c4ccc(OCCN5CCOCC5)cc4)c3)cc21
Summary of the method: as §1

[3] = compound: N=C1NC(=O)/C(=C/c2ccc(O)cc2)S1 [Mirin]
Summary of the method: as §1

[4] = compound: CCn1c(-c2nonc2N)nc2cnc(Oc3cccc(NC(=O)c4ccc(OCCN5CCOCC5)cc4)c3)cc21 + Cc1nc(Nc2ncc(C(=O)Nc3c(C)cccc3Cl)s2)cc(N2CCN(CCO)CC2)n1 [Dasatinib] (partner 0.075 µM)
Summary of the method: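 Nuclei were stained with Hoechst during a one-step fixation (final 0.05% Triton X-100, 1% formaldehyde, 1 ug/ml Hoechst) carried out 5 days after dosing, then counted on 4× images. The cells, lung cancer lines in 1536-well plates, had been dosed by pin tool the day after seeding with one drug alone or a fixed anchor-drug dose plus five library-drug doses (not always all listed) in √10 steps. Relative viability is the nuclei count in treated wells divided by that in vehicle wells, and each value is the median of duplicate plates.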

Row | Cell Line | relative viability ([1]; 0.04 µM) | relative viability ([1]; 0.1265 µM) | relative viability ([1]; 0.4 µM) | relative viability ([1]; 1.265 µM) | relative viability ([1]; 4 µM) | relative viability ([2]; 0.04 µM) | relative viability ([2]; 0.1265 µM) | relative viability ([2]; 0.4 µM) | relative viability ([2]; 1.265 µM) | relative viability ([2]; 4 µM) | relative viability ([3]; 0.25 µM) | relative viability ([3]; 0.7906 µM) | relative viability ([3]; 2.5 µM) | relative viability ([3]; 7.906 µM) | relative viability ([3]; 25 µM) | relative viability ([4]; first compound 0.04 µM) | relative viability ([4]; first compound 0.1265 µM) | relative viability ([4]; first compound 0.4 µM) | relative viability ([4]; first compound 1.265 µM) | relative viability ([4]; first compound 4 µM)
1 | 201T | 0.98 | 0.956 | 0.97 | 0.869 | 1.05 | 1.06 | 0.961 | 0.811 | 0.778 | 0.834 | 1.03 | 1.03 | 0.974 | 1.05 | 1.02 | 0.644 | 0.682 | 0.443 | 0.588 | 0.506
2 | A549 | 0.978 | 0.868 | 0.921 | 0.934 | 0.89 | 1.24 | 1.01 | 0.742 | 0.116 | 0.116 | 1.01 | 0.982 | 1.05 | 0.913 | 0.953 | – | – | – | – | –
3 | A-427 | 0.885 | 0.961 | 0.857 | 0.808 | 0.887 | 1.23 | 0.936 | 0.727 | 0.587 | 0.444 | 0.983 | 0.716 | 1.02 | 0.961 | 1.03 | 0.694 | 0.487 | 0.375 | 0.269 | 0.224
4 | ABC-1 | 0.946 | 0.807 | 0.816 | 0.742 | 0.828 | 1.09 | 0.906 | 0.545 | 0.452 | 0.447 | 0.996 | 0.806 | 0.949 | 0.759 | 0.487 | 0.54 | 0.51 | 0.414 | 0.311 | 0.372
5 | BEN | 0.836 | 0.929 | 0.928 | 0.594 | 0.675 | 0.92 | 0.816 | 0.514 | 0.362 | 0.452 | 0.857 | 1.01 | 1.2 | 0.812 | 0.549 | 0.276 | 0.238 | 0.174 | 0.186 | 0.232
6 | CAL-12T | 0.985 | 0.941 | 0.958 | 0.974 | 1.01 | 1.33 | 1.13 | 0.927 | 0.479 | 0.654 | 1.07 | 0.861 | 1.02 | 0.982 | 1.23 | 0.39 | 0.43 | 0.267 | 0.276 | 0.157
7 | COR-L23 | 0.985 | 0.989 | 0.937 | 0.932 | 0.922 | 1.1 | 0.846 | 0.497 | 0.252 | 0.19 | 1.04 | 1.13 | 1.09 | 1.06 | 1.02 | 0.47 | 0.336 | 0.173 | 0.164 | 0.121
8 | COR-L 105 | 0.875 | 0.932 | 0.978 | 0.746 | 0.906 | 0.919 | 0.776 | 0.761 | 0.43 | 0.443 | 1.09 | 1.12 | 1.06 | 1.02 | 0.833 | 0.261 | 0.219 | 0.217 | 0.232 | 0.167
